# Experimental data published in PubChem BioAssay AID1259407 (Chemical Carcinogenesis Research Information System (CCRIS), 2018).
# Active and inactive are the calls of the source. No rule for the calls is given here.
# System: CCRIS mutagenicity, Ames/micronucleus/aberration tests
# Test: CCRIS mutagenicity studies
smiles,measurement,setting,value
CCc1nc2ccc(NC)c(C)c2nc1CC,mutagenic call,"Test System: AMES SALMONELLA TYPHIMURIUM, Strain/Indicator: TA98, Metabolic Activation: NONE, Method: PREINCUBATION",inactive; negative
same,mutagenic call,"Test System: AMES SALMONELLA TYPHIMURIUM, Strain/Indicator: TA98, Metabolic Activation: RAT, LIVER, S-9, PCB, Method: PREINCUBATION",active; positive
same,mutagenic call,"Test System: AMES SALMONELLA TYPHIMURIUM, Strain/Indicator: TA100, Metabolic Activation: NONE, Method: PREINCUBATION",inactive; negative
same,mutagenic call,"Test System: AMES SALMONELLA TYPHIMURIUM, Strain/Indicator: TA100, Metabolic Activation: RAT, LIVER, S-9, PCB, Method: PREINCUBATION",active; positive
Cc1ccc(C(C)C)c(O)c1,mutagenic call,"End Point: IN VITRO CHROMOSOMAL ABERRATIONS, Test System: SYRIAN HAMSTER EMBRYO (SHE) CELLS, Metabolic Activation: NONE",inactive; negative; toxic at 520 um
same,mutagenic call,"End Point: IN VITRO CHROMOSOMAL ABERRATIONS, Test System: SYRIAN HAMSTER EMBRYO (SHE) CELLS, Metabolic Activation: RAT, LIVER, S-9",active; positive (structural changes)
same,mutagenic call,"End Point: In vitro micronucleus, Test System: Human peripheral lymphocytes",active; positive
same,mutagenic call,"End Point: In vivo chromosomal aberrations, Test System: Bone marrow cells, Species: Rat, Strain/Sex: Sprague-Dawley/Male, Route: Intraperitoneal",active; positive (structural and numerical changes)
same,mutagenic call,"End Point: In vivo chromosomal aberrations, Test System: Human peripheral lymphocytes",active; positive (structural changes)
same,mutagenic call,"Test System: AMES SALMONELLA TYPHIMURIUM, Strain/Indicator: TA97, Metabolic Activation: NONE, Method: PREINCUBATION (20 MIN)",inactive; negative
same,mutagenic call,"Test System: AMES SALMONELLA TYPHIMURIUM, Strain/Indicator: TA97, Metabolic Activation: S-9, Method: PREINCUBATION (20 MIN)",inactive; negative
same,mutagenic call,"Test System: AMES SALMONELLA TYPHIMURIUM, Strain/Indicator: TA98, Metabolic Activation: NONE, Method: PREINCUBATION (20 MIN)",inactive; negative
same,mutagenic call,"Test System: AMES SALMONELLA TYPHIMURIUM, Strain/Indicator: TA98, Metabolic Activation: S-9, Method: PREINCUBATION (20 MIN)",inactive; negative
same,mutagenic call,"Test System: AMES SALMONELLA TYPHIMURIUM, Strain/Indicator: TA100, Metabolic Activation: NONE, Method: PREINCUBATION (20 MIN)",inactive; negative
same,mutagenic call,"Test System: AMES SALMONELLA TYPHIMURIUM, Strain/Indicator: TA100, Metabolic Activation: S-9, Method: PREINCUBATION (20 MIN)",inactive; negative
Nc1c(S(=O)(=O)O)cc(NC2CCCCC2)c2c1C(=O)c1ccccc1C2=O,mutagenic call,"Test System: AMES SALMONELLA TYPHIMURIUM, Strain/Indicator: TA98, Metabolic Activation: NONE, Method: STANDARD PLATE",inactive; negative
same,mutagenic call,"Test System: AMES SALMONELLA TYPHIMURIUM, Strain/Indicator: TA98, Metabolic Activation: RAT, LIVER, S-9, AROCLOR 1254, Method: STANDARD PLATE",inactive; negative
same,mutagenic call,"Test System: AMES SALMONELLA TYPHIMURIUM, Strain/Indicator: TA100, Metabolic Activation: NONE, Method: STANDARD PLATE",inactive; negative
same,mutagenic call,"Test System: AMES SALMONELLA TYPHIMURIUM, Strain/Indicator: TA100, Metabolic Activation: RAT, LIVER, S-9, AROCLOR 1254, Method: STANDARD PLATE",inactive; negative
same,mutagenic call,"Test System: AMES SALMONELLA TYPHIMURIUM, Strain/Indicator: TA1535, Metabolic Activation: NONE, Method: STANDARD PLATE",inactive; negative
same,mutagenic call,"Test System: AMES SALMONELLA TYPHIMURIUM, Strain/Indicator: TA1535, Metabolic Activation: RAT, LIVER, S-9, AROCLOR 1254, Method: STANDARD PLATE",inactive; negative
same,mutagenic call,"Test System: AMES SALMONELLA TYPHIMURIUM, Strain/Indicator: TA1537, Metabolic Activation: NONE, Method: STANDARD PLATE",inactive; negative
same,mutagenic call,"Test System: AMES SALMONELLA TYPHIMURIUM, Strain/Indicator: TA1537, Metabolic Activation: RAT, LIVER, S-9, AROCLOR 1254, Method: STANDARD PLATE",inactive; negative
same,mutagenic call,"Test System: AMES SALMONELLA TYPHIMURIUM, Strain/Indicator: TA1538, Metabolic Activation: NONE, Method: STANDARD PLATE",inactive; negative
same,mutagenic call,"Test System: AMES SALMONELLA TYPHIMURIUM, Strain/Indicator: TA1538, Metabolic Activation: RAT, LIVER, S-9, AROCLOR 1254, Method: STANDARD PLATE",inactive; negative
